How the values were obtained:
human placental HSD11B2 = molecular target: T1, human placental HSD11B2 (Homo sapiens, UniProt P80365); test: Human placental microsomal HSD11B2 activity assay; format: biochemical
T1 sequence (P80365 1-405): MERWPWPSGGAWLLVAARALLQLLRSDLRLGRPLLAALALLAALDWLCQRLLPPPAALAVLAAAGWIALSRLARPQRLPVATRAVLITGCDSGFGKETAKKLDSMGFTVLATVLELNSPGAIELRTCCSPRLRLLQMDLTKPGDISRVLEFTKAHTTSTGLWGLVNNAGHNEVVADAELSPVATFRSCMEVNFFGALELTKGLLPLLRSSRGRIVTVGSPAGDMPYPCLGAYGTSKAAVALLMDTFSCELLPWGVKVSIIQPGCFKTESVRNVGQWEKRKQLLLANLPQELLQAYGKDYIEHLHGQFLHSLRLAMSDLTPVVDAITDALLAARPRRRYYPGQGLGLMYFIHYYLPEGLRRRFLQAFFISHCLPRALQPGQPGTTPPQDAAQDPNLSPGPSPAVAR

[1] = test system: human trophoblast cell lines BeWo and HTR-8; details: DES at pM, BeWo and HTR-8 cells; cited from earlier work
[2] = test system: cultured trophoblast cells; details: cited from earlier work

IC50 (human placental HSD11B2) [µM]	Mode of action versus cofactor NAD+ (Lineweaver–Burk), human HSD11B2 (human placental HSD11B2; cofactor NAD+ varied, human placental microsomes)	Mode of action versus steroid substrate (Lineweaver–Burk), human HSD11B2 (human placental HSD11B2; cortisol as the substrate, human placental microsomes)	inhibition at 100 µM (human placental HSD11B2; read-out: Inhibition of human placental HSD11B2 activity) [%]	Compound	Effect on human β-chorionic gonadotropin (β-hCG) secretion [1]	Effect on secretion of human chorionic gonadotropin [2]
12.6	uncompetitive inhibitor	competitive inhibitor	> 50	CC/C(=C(/CC)c1ccc(O)cc1)c1ccc(O)cc1 [DES, Diethylstilbestrol]	can inhibit	–
–	–	–	–	CC1(C)[C@@H](OC(=O)CCC(=O)O)CC[C@]2(C)[C@H]3C(=O)C=C4[C@@H]5C[C@@](C)(C(=O)O)CC[C@]5(C)CC[C@@]4(C)[C@]3(C)CC[C@@H]12 [carbenoxolone]	–	stimulated secretion
